Reference: patent US11753446B2, “Beta-hairpin peptidomimetics” (POLYPHOR AG, priority 2014, dated 2023)
Where a SMILES comes first, the peptide text is derived from it. Bridges are numbered along the chain shown (N, C = ends). [ ]: non-standard residue; d: D form. Tle = CC(C)(C)[C@H](N)C(=O)O; dDab = NCC[C@@H](N)C(=O)O; Orn = NCCC[C@H](N)C(=O)O; Dab = NCC[C@H](N)C(=O)O; Dap = NC[C@H](N)C(=O)O

Assays:
[1] = test system: Escherichia coli ATCC 25922; format: cell-based; conditions: ATCC 25922
Protocol: (§1) Stock solutions were kept at +4° C., light protected.
(§2) The selective antimicrobial activities of the peptides were determined in 96-well plates (Greiner, polystyrene) by the standard NCCLS broth microdilution method (National Committee for Clinical Laboratory Standards 1993. Methods for dilution antimicrobial susceptibility tests for bacteria that grow aerobically, 3rd ed. Approved standard M7-A6; National Committee for Clinical laboratory standards, Wayne, Pa.) with slight modifications. Inocula of the microorganisms were diluted into Mueller-Hinton II (MH, cation adjusted) broth and compared with a 0.5 McFarland standard to give appr. 10^6 colony forming units (CFU)/mL. Aliquots (90 μl) of inoculate were added to 10 μl of MH broth+P-80 (Polysorbate 80, 0.002% final concentration) containing the peptide in serial two-fold dilutions. The following microorganisms were used to determine antibiotic selectivity of the peptides: Escherichia coli ATCC 25922, Klebsiella pneumoniae ATCC 13883 and Acinetobacter baumannii DSM 30008.

[2] = test system: Klebsiella pneumoniae ATCC 13883; format: cell-based; conditions: ATCC 13883
Protocol: as §1, §2

[3] = test system: Acinetobacter baumannii DSM 30008; format: cell-based; conditions: DSM 30008
Protocol: as §1, §2

[4] = test system: human red blood cells (hRBC); test: Hemolysis: hemolytic activity at 100 μg/mL, 1 h at 37° C.; conditions: red cells of human, 1 h
Protocol: Lyophilized peptides were weighed on a Microbalance (Mettler MT5) and dissolved in sterile water to a final concentration of 1 mg/mL. Stock solutions were kept at +4° C., light protected.
The peptides were tested for their hemolytic activity against human red blood cells (hRBC). Fresh hRBC were washed three times with phosphate buffered saline (PBS) and centrifuged for 5 min at 3000×g. Compounds (100 μg/mL) were incubated with 20% hRBC (v/v) for 1 h at 37° C. and shaking at 300 rpm. The final erythrocyte concentration was approximately 0.9×10^9 cells/mL. A value of 0% and 100% cell lyses, respectively, was determined by incubation of hRBC in the presence of PBS containing 0.001% acetic acid and 2.5% Triton X-100 in H2O, respectively. The samples were centrifuged, the supernatants were 8-fold diluted in PBS buffer and the optical densities (OD) were measured at 540 nm.
Percent hemolysis was calculated as follows: (OD540peptide/OD540H2O)×100%.

CC(C)C[C@@H]1NC(=O)[C@@H]2CCCN2C(=O)[C@@H](C)NC(=O)[C@H](CO)NC(=O)[C@@H]2CC(=O)NCC[C@H](NC1=O)C(=O)N[C@@H](Cc1ccc(O)cc1)C(=O)N[C@@H](CCN)C(=O)N[C@@H](CCN)C(=O)N[C@@H](CCN)C(=O)N[C@@H](CCN)C(=O)N[C@@H](Cc1c[nH]c3ccccc13)C(=O)N[C@@H](CCN)C(=O)N[C@@H](C(C)(C)C)C(=O)N2 [Example 26, cyclo(-Leu-Dab-Tyr-Dab-Dab-Dab-Dab-Trp-Dab-tBuGly-Asp-Ser-^DAla-Pro-)] (HELM PEPTIDE1{D.S.[dA].P.L.[Dab].Y.[Dab].[Dab].[Dab].[Dab].W.[Dab].[CC(C)(C)[C@H](N[*:1])C(=O)[*:2]]}$PEPTIDE1,PEPTIDE1,1:R3-6:R3|PEPTIDE1,PEPTIDE1,1:R1-14:R2$$$V2.0)
Escherichia coli ATCC 25922 MIC [1]: 2 µg/mL | Klebsiella pneumoniae ATCC 13883 MIC [2]: 1 µg/mL | Acinetobacter baumannii DSM 30008 MIC [3]: 2 µg/mL | Hemolysis at 100 μg/mL [4]; 100: 1%

C[C@@H]1NC(=O)[C@H](C(C)(C)C)NC(=O)[C@H](CCN)NC(=O)[C@H](Cc2c[nH]c3ccccc23)NC(=O)[C@H](CCN)NC(=O)[C@@H](CCN)NC(=O)[C@H](CCCN)NC(=O)[C@H](CCN)NC(=O)[C@H](Cc2ccc(O)cc2)NC(=O)[C@H](CN)NC(=O)[C@H](Cc2ccccc2)NC(=O)[C@@H]2CCCN2C(=O)[C@@H](CCN)NC(=O)[C@H](CO)NC1=O [Example 50, cyclo(-Phe-Dap-Tyr-Dab-Orn-^DDab-Dab-Trp-Dab-tBuGly-Ala-Ser-^DDab-Pro-)] (cyclo(AS[dDab]PF[Dap]Y[Dab][Orn][dDab][Dab]W[Dab][Tle]))
Escherichia coli ATCC 25922 MIC [1]: 1 µg/mL | Klebsiella pneumoniae ATCC 13883 MIC [2]: 0.5 µg/mL | Acinetobacter baumannii DSM 30008 MIC [3]: 2 µg/mL | Hemolysis at 100 μg/mL [4]; 100: 11%

CC[C@H](C)[C@@H]1NC(=O)[C@H](Cc2ccc(O)cc2)NC(=O)[C@@H](C)NC(=O)[C@H](CO)NC(=O)[C@@H]2CSSC[C@H](NC1=O)C(=O)N[C@@H](Cc1ccc(O)cc1)C(=O)N[C@@H](CCN)C(=O)N[C@@H](CCCN)C(=O)N[C@H](CCN)C(=O)N[C@@H](CCN)C(=O)N[C@@H](Cc1c[nH]c3ccccc13)C(=O)N[C@@H](CCN)C(=O)N[C@@H](C(C)(C)C)C(=O)N2 [Example 16, cyclo(-Ile-Cys-Tyr-Dab-Orn-^DDab-Dab-Trp-Dab-tBuGly-Cys-Ser-^DAla-Tyr-)] (HELM PEPTIDE1{C.S.[dA].Y.I.C.Y.[Dab].[Orn].[NCC[C@@H](N[*:1])C(=O)[*:2]].[Dab].W.[Dab].[CC(C)(C)[C@H](N[*:1])C(=O)[*:2]]}$PEPTIDE1,PEPTIDE1,1:R3-6:R3|PEPTIDE1,PEPTIDE1,1:R1-14:R2$$$V2.0)
Escherichia coli ATCC 25922 MIC [1]: 0.5 µg/mL | Klebsiella pneumoniae ATCC 13883 MIC [2]: 0.5 µg/mL | Acinetobacter baumannii DSM 30008 MIC [3]: 1 µg/mL | Hemolysis at 100 μg/mL [4]; 100: 1%

CC(C)[C@@H]1NC(=O)[C@@H]2CCCN2C(=O)[C@@H]([C@H](C)O)NC(=O)[C@H]([C@@H](C)O)NC(=O)[C@@H]2CC(=O)NCC[C@H](NC1=O)C(=O)N[C@@H](Cc1ccc(O)cc1)C(=O)N[C@@H](CCN)C(=O)N[C@@H](CN)C(=O)N[C@H](CCN)C(=O)N[C@@H](CCN)C(=O)N[C@@H](Cc1c[nH]c3ccccc13)C(=O)N[C@@H](CCN)C(=O)N[C@@H](C(C)(C)C)C(=O)N2 [Example 29, cyclo(-Val-Dab-Tyr-Dab-Dap-^DDab-Dab-Trp-Dab-tBuGly-Asp-Thr-^DThr-Pro-)] (cyclo(V[Dab]Y[Dab][Dap][dDab][Dab]W[Dab][Tle]DT[dT]P); lactam 2-11)
Escherichia coli ATCC 25922 MIC [1]: 0.5 µg/mL | Klebsiella pneumoniae ATCC 13883 MIC [2]: 0.5 µg/mL | Acinetobacter baumannii DSM 30008 MIC [3]: 1 µg/mL | Hemolysis at 100 μg/mL [4]; 100: 2%

CC(C)[C@@H]1NC(=O)[C@H](CCCNC(=N)N)NC(=O)[C@@H](CCN)NC(=O)[C@H](C(C)C)NC(=O)[C@@H]2CSSC[C@H](NC1=O)C(=O)N[C@@H](Cc1ccc(O)cc1)C(=O)N[C@@H](CC(N)=O)C(=O)N[C@@H](CCCN)C(=O)N[C@H](CCN)C(=O)N[C@@H](CCN)C(=O)N[C@@H](Cc1c[nH]c3ccccc13)C(=O)N[C@@H](CO)C(=O)N[C@@H](Cc1ccc(O)cc1)C(=O)N2 [Example 57, cyclo(-Val-Cys-Tyr-Asn-Orn-^DDab-Dab-Trp-Ser-Tyr-Cys-Val-^DDab-Arg-)] (HELM PEPTIDE1{C.V.[NCC[C@@H](N[*:1])C(=O)[*:2]].R.V.C.Y.N.[Orn].[NCC[C@@H](N[*:1])C(=O)[*:2]].[Dab].W.S.Y}$PEPTIDE1,PEPTIDE1,1:R3-6:R3|PEPTIDE1,PEPTIDE1,1:R1-14:R2$$$V2.0)
Escherichia coli ATCC 25922 MIC [1]: 1 µg/mL | Klebsiella pneumoniae ATCC 13883 MIC [2]: 1.5 µg/mL | Acinetobacter baumannii DSM 30008 MIC [3]: 1.25 µg/mL | Hemolysis at 100 μg/mL [4]; 100: 1%

CC(C)C[C@@H]1NC(=O)[C@H](CCN)NC(=O)[C@@H](CCN)NC(=O)[C@H](C(C)C)NC(=O)[C@@H]2CSSC[C@H](NC1=O)C(=O)N[C@@H](Cc1ccc(O)cc1)C(=O)N[C@@H](CC(N)=O)C(=O)N[C@@H](CCCN)C(=O)N[C@H](CCN)C(=O)N[C@@H](CCN)C(=O)N[C@@H](Cc1c[nH]c3ccccc13)C(=O)N[C@@H](CC(N)=O)C(=O)N[C@@H](Cc1ccc(O)cc1)C(=O)N2 [Example 54, cyclo(-Leu-Cys-Tyr-Asn-Orn-^DDab-Dab-Trp-Asn-Tyr-Cys-Val-^DDab-Dab-)] (HELM PEPTIDE1{C.V.[NCC[C@@H](N[*:1])C(=O)[*:2]].[Dab].L.C.Y.N.[Orn].[NCC[C@@H](N[*:1])C(=O)[*:2]].[Dab].W.N.Y}$PEPTIDE1,PEPTIDE1,1:R3-6:R3|PEPTIDE1,PEPTIDE1,1:R1-14:R2$$$V2.0)
Escherichia coli ATCC 25922 MIC [1]: 0.75 µg/mL | Klebsiella pneumoniae ATCC 13883 MIC [2]: 1 µg/mL | Acinetobacter baumannii DSM 30008 MIC [3]: 1.25 µg/mL | Hemolysis at 100 μg/mL [4]; 100: 3%

CC[C@H](C)[C@@H]1NC(=O)[C@H](C)NC(=O)[C@@H](CCN)NC(=O)[C@H](CO)NC(=O)[C@@H]2CSSC[C@H](NC1=O)C(=O)N[C@@H](Cc1ccc(O)cc1)C(=O)N[C@@H](CCN)C(=O)N[C@@H](CCCN)C(=O)N[C@H](CCN)C(=O)N[C@@H](CCN)C(=O)N[C@@H](Cc1c[nH]c3ccccc13)C(=O)N[C@@H](CCN)C(=O)N[C@@H](C(C)(C)C)C(=O)N2 [Example 13, cyclo(-Ile-Cys-Tyr-Dab-Orn-^DDab-Dab-Trp-Dab-tBuGly-Cys-Ser-^DDab-Ala-)] (cyclo(AICY[Dab][Orn][dDab][Dab]W[Dab][Tle]CS[dDab]); disulfide 3-12)
Escherichia coli ATCC 25922 MIC [1]: 0.5 µg/mL | Klebsiella pneumoniae ATCC 13883 MIC [2]: 8 µg/mL | Acinetobacter baumannii DSM 30008 MIC [3]: 2 µg/mL | Hemolysis at 100 μg/mL [4]; 100: 1%

CC(C)C[C@@H]1NC(=O)[C@H](CCCNC(=N)N)NC(=O)[C@H]2CCCN2C(=O)[C@H](C(C)C)NC(=O)[C@@H]2CSSC[C@H](NC1=O)C(=O)N[C@@H](Cc1ccc(O)cc1)C(=O)N[C@H]1CSSC[C@H](NC(=O)[C@H](Cc3c[nH]c4ccccc34)NC(=O)[C@H](CCN)NC(=O)[C@H](CCN)NC(=O)[C@H](CCN)NC1=O)C(=O)N[C@@H](Cc1ccc(O)cc1)C(=O)N2 [Example 42, cyclo(-Leu-Cys-Tyr-Cys-Dab-Dab-Dab-Trp-Cys-Tyr-Cys-Val-^DPro-Arg-)] (HELM PEPTIDE1{C.[Dab].[Dab].[Dab].W.C.Y.C.V.[dP].R.L.C.Y}$PEPTIDE1,PEPTIDE1,1:R3-6:R3|PEPTIDE1,PEPTIDE1,8:R3-13:R3|PEPTIDE1,PEPTIDE1,1:R1-14:R2$$$V2.0)
Escherichia coli ATCC 25922 MIC [1]: 4 µg/mL | Klebsiella pneumoniae ATCC 13883 MIC [2]: 2 µg/mL | Acinetobacter baumannii DSM 30008 MIC [3]: 1 µg/mL | Hemolysis at 100 μg/mL ([4]; 100 μg/mL): 3%
